# Assay results taken from ChEMBL document CHEMBL1201862, “PubChem BioAssay data set” (2004).
# Activity calls are given as the source filed them.
# Columns and labels:
# [1] = biological target: T1, Mannose-6-phosphate isomerase (Homo sapiens, UniProt P34949); experiment: human PMI inhibitors, high substrate, primary screen, biochemical, fluorescence intensity, high mannose 6-phosphate (AID 1220)
# T1 sequence (P34949 whole entry): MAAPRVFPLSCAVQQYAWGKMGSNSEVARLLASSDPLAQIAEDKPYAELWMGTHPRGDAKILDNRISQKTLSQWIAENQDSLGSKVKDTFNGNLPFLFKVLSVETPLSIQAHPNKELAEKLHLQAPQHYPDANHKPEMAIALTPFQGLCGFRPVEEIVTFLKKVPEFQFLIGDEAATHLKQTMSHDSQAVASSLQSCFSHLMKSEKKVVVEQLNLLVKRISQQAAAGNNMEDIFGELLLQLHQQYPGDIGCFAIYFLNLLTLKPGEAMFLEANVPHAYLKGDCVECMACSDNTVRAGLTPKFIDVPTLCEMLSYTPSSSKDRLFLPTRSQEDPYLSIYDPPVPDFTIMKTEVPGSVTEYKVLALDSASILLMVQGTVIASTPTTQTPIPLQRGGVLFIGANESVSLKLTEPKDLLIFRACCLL
# SUMO-activating enzyme = SUMO-activating enzyme (Homo sapiens, UniProt Q9UBT2); experiment: SUMOylation inhibitor hit validation, confirmation, SUMOylation inhibitor project, biochemical, AlphaScreen (AID 2018); type: functional
# Chain of SUMO-activating enzyme (Q9UBE0 whole entry): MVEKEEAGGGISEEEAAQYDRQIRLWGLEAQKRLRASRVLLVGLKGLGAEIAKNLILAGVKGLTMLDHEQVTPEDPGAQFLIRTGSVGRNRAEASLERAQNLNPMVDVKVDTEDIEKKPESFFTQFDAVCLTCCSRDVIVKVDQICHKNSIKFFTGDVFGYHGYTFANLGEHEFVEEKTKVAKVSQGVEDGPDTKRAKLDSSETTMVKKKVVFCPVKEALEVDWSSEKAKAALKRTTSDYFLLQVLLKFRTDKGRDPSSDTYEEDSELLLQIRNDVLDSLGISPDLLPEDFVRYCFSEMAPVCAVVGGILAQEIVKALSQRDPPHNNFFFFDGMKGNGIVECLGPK
# Chain of SUMO-activating enzyme (Q9UBT2 whole entry): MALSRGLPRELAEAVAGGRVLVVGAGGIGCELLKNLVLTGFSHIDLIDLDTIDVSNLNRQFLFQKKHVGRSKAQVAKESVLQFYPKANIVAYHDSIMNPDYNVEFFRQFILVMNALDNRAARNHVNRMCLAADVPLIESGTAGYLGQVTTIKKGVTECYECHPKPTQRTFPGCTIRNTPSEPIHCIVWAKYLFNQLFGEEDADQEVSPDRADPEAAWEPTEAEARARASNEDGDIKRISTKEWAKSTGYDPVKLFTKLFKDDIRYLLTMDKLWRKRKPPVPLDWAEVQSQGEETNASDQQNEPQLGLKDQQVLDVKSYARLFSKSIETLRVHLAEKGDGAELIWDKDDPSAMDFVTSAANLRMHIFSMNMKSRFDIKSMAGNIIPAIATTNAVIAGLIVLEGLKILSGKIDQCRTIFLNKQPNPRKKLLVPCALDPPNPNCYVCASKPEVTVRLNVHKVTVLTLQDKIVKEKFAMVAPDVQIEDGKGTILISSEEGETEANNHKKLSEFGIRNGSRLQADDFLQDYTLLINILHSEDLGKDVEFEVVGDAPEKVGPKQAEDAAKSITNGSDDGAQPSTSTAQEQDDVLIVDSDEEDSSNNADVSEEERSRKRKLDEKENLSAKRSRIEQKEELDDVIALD
# P388 = experiment: cells; type: functional; settings: Mus musculus
# SN12K1 = experiment: cells; type: functional; settings: Homo sapiens
# P388/ADR = experiment: cells; type: functional; settings: Mus musculus
# Vero [2] = experiment: Vero cell cytotoxicity, cytotoxicity control for flavivirus capping enzyme inhibitors (AID 588742); type: functional; settings: Chlorocebus sabaeus
# Estrogen receptor beta = Estrogen receptor beta (Homo sapiens, UniProt Q92731);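 note: recombinant ER-beta bound to coactivator SRC1 peptide in presence of estradiol agonist; inhibitors block coactivator peptide binding and lower the FRET signal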
# Chain of Estrogen receptor beta (Q92731 whole entry): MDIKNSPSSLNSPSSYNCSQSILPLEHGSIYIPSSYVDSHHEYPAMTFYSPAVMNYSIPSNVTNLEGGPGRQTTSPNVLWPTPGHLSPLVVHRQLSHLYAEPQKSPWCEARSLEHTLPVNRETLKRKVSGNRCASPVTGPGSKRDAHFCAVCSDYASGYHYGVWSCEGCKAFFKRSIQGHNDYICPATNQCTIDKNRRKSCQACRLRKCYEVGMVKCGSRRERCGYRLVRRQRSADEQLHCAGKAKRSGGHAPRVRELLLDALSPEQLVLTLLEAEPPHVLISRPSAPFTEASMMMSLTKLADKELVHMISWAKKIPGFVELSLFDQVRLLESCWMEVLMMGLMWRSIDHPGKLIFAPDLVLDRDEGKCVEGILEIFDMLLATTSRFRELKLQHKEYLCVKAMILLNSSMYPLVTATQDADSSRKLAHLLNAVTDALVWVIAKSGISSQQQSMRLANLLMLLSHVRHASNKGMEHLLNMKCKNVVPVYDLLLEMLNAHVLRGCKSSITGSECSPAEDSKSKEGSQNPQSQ
# [3] = biological target: Voltage-dependent T-type calcium channel subunit alpha-1H (Homo sapiens, UniProt O95180); type: functional;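 note: channel activity triggered by adding a high calcium stimulation buffer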
# Chain of Voltage-dependent T-type calcium channel subunit alpha-1H (O95180 whole entry): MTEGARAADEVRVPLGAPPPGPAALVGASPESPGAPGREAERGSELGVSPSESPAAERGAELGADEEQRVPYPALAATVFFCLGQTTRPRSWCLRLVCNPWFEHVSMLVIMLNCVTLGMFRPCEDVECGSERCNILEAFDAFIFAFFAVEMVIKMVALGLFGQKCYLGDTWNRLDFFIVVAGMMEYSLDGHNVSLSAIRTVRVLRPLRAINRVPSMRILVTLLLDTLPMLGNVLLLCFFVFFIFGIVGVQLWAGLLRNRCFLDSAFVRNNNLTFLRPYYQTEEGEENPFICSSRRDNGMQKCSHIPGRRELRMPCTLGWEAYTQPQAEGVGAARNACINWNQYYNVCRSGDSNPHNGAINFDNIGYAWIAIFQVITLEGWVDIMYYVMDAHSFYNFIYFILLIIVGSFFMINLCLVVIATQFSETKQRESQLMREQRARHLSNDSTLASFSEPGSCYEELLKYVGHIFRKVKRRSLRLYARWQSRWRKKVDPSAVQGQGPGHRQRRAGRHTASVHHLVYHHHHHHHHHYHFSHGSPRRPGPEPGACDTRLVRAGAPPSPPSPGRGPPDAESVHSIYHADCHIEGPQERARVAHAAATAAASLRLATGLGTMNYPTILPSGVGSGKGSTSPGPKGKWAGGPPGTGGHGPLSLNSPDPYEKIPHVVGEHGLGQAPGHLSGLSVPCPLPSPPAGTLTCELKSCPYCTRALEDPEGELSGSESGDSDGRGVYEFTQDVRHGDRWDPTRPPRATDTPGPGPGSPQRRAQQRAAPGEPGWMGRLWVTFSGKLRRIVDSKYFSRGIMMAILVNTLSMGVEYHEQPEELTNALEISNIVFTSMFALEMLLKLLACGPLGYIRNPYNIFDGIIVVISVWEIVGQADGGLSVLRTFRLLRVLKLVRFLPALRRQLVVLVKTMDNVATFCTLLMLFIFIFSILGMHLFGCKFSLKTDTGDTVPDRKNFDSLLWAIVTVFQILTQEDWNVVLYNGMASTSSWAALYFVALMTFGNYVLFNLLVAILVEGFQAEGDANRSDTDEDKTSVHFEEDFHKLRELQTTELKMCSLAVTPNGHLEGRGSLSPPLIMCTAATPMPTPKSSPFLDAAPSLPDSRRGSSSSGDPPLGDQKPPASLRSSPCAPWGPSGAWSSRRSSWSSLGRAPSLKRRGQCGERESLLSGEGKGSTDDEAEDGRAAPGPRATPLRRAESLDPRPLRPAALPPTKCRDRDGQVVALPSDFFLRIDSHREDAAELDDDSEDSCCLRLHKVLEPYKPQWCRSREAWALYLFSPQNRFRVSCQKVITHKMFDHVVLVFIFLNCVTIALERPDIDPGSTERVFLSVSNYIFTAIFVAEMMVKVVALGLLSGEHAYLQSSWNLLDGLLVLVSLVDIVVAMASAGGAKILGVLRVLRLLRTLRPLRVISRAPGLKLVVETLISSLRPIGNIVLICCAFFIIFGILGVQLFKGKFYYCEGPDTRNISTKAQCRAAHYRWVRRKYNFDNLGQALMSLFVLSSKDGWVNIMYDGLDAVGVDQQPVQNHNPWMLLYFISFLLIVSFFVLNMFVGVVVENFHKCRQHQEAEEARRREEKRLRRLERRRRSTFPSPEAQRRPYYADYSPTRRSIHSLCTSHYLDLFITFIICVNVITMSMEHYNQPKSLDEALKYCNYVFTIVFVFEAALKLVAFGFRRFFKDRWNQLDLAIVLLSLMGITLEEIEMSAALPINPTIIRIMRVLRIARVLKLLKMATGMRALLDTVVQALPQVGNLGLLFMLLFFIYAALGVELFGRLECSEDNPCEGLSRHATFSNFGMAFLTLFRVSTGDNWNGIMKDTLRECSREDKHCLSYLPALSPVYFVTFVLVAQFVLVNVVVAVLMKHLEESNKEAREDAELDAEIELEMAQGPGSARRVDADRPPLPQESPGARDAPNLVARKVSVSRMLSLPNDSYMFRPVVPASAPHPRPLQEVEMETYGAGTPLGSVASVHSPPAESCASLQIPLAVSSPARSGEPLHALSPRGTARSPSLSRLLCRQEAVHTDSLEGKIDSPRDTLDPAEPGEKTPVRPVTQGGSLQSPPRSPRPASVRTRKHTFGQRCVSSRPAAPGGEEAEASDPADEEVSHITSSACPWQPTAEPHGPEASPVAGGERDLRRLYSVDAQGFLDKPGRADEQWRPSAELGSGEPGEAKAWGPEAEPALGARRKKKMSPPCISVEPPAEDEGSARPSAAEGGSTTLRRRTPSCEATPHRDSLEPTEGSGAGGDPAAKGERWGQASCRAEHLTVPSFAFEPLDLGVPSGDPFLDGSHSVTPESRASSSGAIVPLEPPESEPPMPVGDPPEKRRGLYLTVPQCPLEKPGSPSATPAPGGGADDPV
# [4] = biological target: T2, Long-chain-fatty-acid--AMP ligase FadD28 (Mycobacterium tuberculosis, UniProt P9WQ59); experiment: Fluorescence polarization aasay to screen for inhibitors that compete for the binding of FadD28 to a bisubstrate Measured in Biochemical System Using Plate Reader - 2147-01_Inhibitor_Dose_CherryPick_Activity.; type: functional, Mycobacterium tuberculosis H37Rv
# T2 sequence (P9WQ59 whole entry): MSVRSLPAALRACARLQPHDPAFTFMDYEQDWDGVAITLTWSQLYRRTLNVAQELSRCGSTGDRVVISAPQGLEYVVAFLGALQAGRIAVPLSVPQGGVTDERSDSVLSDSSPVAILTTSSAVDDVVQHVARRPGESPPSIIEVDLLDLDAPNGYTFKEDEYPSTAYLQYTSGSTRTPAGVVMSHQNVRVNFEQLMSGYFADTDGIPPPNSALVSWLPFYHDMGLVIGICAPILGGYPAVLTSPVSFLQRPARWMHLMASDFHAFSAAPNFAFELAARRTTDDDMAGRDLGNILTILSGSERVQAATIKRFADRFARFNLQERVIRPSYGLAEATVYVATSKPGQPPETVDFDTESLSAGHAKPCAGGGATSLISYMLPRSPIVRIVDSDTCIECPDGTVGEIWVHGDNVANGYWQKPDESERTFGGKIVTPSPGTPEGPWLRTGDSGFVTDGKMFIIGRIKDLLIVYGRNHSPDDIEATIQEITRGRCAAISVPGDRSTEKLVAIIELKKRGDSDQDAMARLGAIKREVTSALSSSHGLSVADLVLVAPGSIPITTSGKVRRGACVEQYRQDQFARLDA
# [5] = biological target: T3, Histone-lysine N-methyltransferase NSD2 (Homo sapiens, UniProt O96028); type: biochemical
# T3 sequence (O96028 whole entry): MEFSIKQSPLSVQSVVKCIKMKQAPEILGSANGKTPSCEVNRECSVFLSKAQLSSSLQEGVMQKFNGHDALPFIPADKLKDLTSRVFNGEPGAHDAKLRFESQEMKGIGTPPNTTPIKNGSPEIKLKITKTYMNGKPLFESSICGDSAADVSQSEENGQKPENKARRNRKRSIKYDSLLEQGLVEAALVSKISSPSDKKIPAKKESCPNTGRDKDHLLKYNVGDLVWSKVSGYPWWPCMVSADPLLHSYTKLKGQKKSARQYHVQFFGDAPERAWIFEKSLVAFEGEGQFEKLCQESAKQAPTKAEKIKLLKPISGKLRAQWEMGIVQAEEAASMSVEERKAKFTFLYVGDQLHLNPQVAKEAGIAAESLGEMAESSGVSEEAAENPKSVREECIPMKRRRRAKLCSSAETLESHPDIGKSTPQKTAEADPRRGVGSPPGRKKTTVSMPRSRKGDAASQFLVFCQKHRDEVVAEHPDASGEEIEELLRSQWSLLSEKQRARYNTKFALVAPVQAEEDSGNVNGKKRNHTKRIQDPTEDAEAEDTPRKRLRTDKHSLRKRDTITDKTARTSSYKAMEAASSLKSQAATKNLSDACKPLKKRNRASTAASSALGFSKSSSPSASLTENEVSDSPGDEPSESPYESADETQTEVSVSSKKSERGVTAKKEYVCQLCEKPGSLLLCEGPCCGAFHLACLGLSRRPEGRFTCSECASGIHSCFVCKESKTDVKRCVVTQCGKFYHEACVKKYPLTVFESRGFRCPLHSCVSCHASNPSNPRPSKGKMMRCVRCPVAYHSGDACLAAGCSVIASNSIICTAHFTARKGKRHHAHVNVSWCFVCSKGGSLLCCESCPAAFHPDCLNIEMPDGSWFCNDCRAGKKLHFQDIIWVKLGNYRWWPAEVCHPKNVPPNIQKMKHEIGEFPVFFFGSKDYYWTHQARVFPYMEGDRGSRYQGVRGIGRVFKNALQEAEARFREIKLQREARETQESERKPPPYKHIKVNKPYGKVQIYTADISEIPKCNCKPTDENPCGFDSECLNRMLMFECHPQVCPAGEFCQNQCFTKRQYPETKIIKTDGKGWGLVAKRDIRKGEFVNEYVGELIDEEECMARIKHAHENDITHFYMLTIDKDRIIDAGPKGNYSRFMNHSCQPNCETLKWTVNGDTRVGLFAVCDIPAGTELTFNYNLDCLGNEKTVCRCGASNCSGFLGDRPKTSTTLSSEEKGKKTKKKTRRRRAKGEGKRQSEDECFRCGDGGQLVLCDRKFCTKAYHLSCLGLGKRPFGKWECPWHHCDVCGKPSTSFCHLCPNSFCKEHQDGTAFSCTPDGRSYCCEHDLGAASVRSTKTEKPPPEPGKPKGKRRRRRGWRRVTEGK
# [6] = biological target: T4, DNA repair protein RAD52 homolog (Homo sapiens, UniProt P43351); type: functional, biochemical
# T4 sequence (P43351 whole entry): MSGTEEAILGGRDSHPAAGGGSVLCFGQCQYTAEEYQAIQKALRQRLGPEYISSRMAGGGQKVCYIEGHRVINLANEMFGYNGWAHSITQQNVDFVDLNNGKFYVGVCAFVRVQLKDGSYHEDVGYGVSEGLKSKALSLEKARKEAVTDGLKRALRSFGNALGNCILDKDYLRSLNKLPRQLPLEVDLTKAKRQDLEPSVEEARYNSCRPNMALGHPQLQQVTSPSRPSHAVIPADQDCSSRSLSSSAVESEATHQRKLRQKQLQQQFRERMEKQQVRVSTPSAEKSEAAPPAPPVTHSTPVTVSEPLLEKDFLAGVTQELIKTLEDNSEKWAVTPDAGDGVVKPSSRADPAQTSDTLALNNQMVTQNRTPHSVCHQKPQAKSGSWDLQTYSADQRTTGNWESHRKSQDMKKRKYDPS
# [7] = biological target: T5, Short transient receptor potential channel 4 (Mus musculus, UniProt Q9QUQ5); experiment: mouse TRPC4 channel activators, dose response, cell-based, HEK293 TRPC4/mu-opioid, Fluo-4 calcium (AID 434937); type: functional
# T5 sequence (Q9QUQ5 whole entry): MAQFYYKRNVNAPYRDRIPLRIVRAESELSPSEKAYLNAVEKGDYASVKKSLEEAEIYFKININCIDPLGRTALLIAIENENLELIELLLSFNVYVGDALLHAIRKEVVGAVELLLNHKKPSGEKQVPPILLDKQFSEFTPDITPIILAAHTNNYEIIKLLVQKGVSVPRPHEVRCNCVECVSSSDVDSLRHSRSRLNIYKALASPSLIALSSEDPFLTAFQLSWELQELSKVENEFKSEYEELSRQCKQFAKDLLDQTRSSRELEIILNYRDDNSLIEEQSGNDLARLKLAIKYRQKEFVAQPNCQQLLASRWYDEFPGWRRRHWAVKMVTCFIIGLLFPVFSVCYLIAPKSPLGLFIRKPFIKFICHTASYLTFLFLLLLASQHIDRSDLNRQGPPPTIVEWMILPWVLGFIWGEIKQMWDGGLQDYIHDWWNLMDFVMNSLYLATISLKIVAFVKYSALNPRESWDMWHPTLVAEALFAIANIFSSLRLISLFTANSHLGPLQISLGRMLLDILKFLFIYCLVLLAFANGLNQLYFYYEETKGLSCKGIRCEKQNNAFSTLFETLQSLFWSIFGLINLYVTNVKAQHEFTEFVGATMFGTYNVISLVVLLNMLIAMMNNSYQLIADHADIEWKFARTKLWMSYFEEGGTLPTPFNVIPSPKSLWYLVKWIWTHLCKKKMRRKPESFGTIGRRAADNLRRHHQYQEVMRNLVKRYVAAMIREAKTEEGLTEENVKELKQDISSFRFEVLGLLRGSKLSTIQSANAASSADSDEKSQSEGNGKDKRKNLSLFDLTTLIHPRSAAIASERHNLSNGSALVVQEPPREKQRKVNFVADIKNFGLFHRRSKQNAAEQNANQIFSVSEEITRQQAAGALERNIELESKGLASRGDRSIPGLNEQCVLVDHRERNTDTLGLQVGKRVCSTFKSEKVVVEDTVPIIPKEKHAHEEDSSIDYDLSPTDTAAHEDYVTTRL
# [8] = HEp-2 cell cytotoxicity, dose response, cytotoxicity control for RSV inhibitor project, HTS (AID 2410); type: functional; settings: human respiratory syncytial virus
# Vero [9] = experiment: cells; type: functional; settings: Chlorocebus sabaeus
# Vero [10] = experiment: cells; type: functional, cell-based; settings: Chlorocebus sabaeus
# [11] = biological target: Eukaryotic translation initiation factor 4E (Mus musculus, UniProt P63073); experiment: eIF4E–eIF4G protein interaction inhibitors, dose response, biochemical, TR-FRET (AID 855); type: functional;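 note: potency for disrupting eIF4E binding to eIF4GI seen as loss of FRET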
# Chain of Eukaryotic translation initiation factor 4E (P63073 whole entry): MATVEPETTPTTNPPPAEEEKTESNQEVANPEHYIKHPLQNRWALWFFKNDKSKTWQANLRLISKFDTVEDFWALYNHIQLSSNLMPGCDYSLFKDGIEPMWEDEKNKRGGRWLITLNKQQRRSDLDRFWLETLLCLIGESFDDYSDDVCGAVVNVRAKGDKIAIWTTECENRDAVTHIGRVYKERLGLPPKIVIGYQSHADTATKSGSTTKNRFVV
structure (smiles),measurement,setting,value
COC(=O)C1=C(C(=O)OC)SC(=C2C(=S)C(C)(C)N(C(=O)C3CC3)c3ccccc32)S1,IC50,[1],6.47 µM (active)
CC1CCCN(c2nc3ccccc3nc2C(C#N)S(=O)(=O)c2ccccc2)C1 (stereo unspecified),IC50,SUMO-activating enzyme,22.1 µM (active)
CC(=O)C(=Cc1cn(C)c(=O)n(C)c1=O)C(C)=O,GI50,P388,80.7 µM (inactive)
same,GI50,SN12K1,100 µM (inactive)
same,GI50,P388/ADR,96.6 µM (inactive)
O=C(Nc1ccc2c(c1)CCCN2C(=O)c1cccs1)c1ccccc1,CC50,Vero [2],> 40 µM (active)
CCOC(=O)CCC(NC(=O)c1ccc(NCN2C(=O)CCC2=O)cc1)C(=O)OCC (stereo unspecified),IC50,Estrogen receptor beta,> 50 µM (not active)
O=C(CS(=O)(=O)Cc1ccccc1)Nc1ccc(S(=O)(=O)N2CCCCCC2)cc1,EC50,[3],4.62 µM (active)
same,AC50,[4],80.8 µM (active)
N=C1/C(=C/c2cccn2Cc2ccc(Cl)cc2)C(=O)N=C2SC=CN12,IC50,SUMO-activating enzyme,47.6 µM (active)
CCN(CC)CCN=C(S)Nc1ccc2nc(N3CCCC3)cc(C)c2c1,AC50,[5],> 20 µM (inactive)
same,AC50,[6],3.9 µM (active)
O=C(NCc1ccco1)C1(S(=O)(=O)c2ccc(Cl)cc2)CC1,IC50,Estrogen receptor beta,> 50 µM (not active)
Cc1cc(-c2nn(-c3ccccc3F)cc2CNCCc2c[nH]cn2)c(C)s1,EC50,[7],0.0427 µM (active)
Cc1ccc2cc(C#N)c(NCCNC(S)=NCCCN(C)C)nc2c1C,CC50,[8],13.2 µM (active)
same,CC50,Vero [9],15.1 µM (active)
same,AC50,[6],16.9 µM (active)
same,IC50,Vero [10],> 25 µM (active)
CCCCCCc1cn([C@H]2C[C@H](O)[C@@H](CO)O2)c(=O)[nH]c1=O,GI50,P388,> 100 µM (inactive)
same,GI50,SN12K1,> 100 µM (inactive)
same,GI50,P388/ADR,> 100 µM (inactive)
O=C(N[C@@H](c1ccccc1)[C@@H](O)C(=O)OCc1ccc2c(c1)OCO2)c1ccccc1,GI50,P388,64.7 µM (inactive)
same,GI50,SN12K1,> 100 µM (inactive)
same,GI50,P388/ADR,72.6 µM (inactive)
O=C(OCC1CC(c2ccccn2)=NO1)c1ccc(Br)cc1 (stereo unspecified),IC50,[11],> 64 µM (inactive)
CCCCN=C(S)Nc1ccc2nc(N3CCN(CC)CC3)cc(C)c2c1,AC50,[6],25.9 µM (active)
O=c1oc2c(ccc3occc32)c(N2CCCCC2)c1-c1ccccc1,GI50,P388,34.7 µM (inactive)
same,GI50,SN12K1,> 100 µM (inactive)
same,GI50,P388/ADR,48.6 µM (inactive)
CC1C(=O)CC(c2cccs2)N(N=O)C1c1cccs1 (stereo unspecified),GI50,P388,20.4 µM (inactive)
same,GI50,SN12K1,57.8 µM (inactive)
same,GI50,P388/ADR,17.3 µM (inactive)
O=C(c1cccn2c(=O)c3cc(Cl)ccc3nc12)N1CCN(Cc2ccc3c(c2)OCO3)CC1,IC50,[11],> 64 µM (inactive)
O=C(O)C1C2C=CC(C2)C1C(=O)NC1CCN(Cc2ccccc2)CC1 (stereo unspecified),EC50,[7],5.31 µM (active)
Cc1ccc(C(=O)Nc2nc(-c3cccnc3)cs2)o1,IC50,Estrogen receptor beta,21.2 µM (active)
O=S(=O)(NCCc1ccc(F)cc1)c1cccc2cccnc12,IC50,[11],50 µM (inactive)
CCOC(=O)/C=C/c1c[nH]c(=O)[nH]c1=O,GI50,P388,> 75 µM (inactive)
same,GI50,SN12K1,> 75 µM (inactive)
same,GI50,P388/ADR,> 66.4 µM (inactive)
COc1ccc(C(c2sc3nc(C)nn3c2O)N2CCc3ccccc3C2)cc1 (stereo unspecified),IC50,[1],9.88 µM (active)
CCN1CCCC1CNC(=O)c1cc2c(OC)cccc2[nH]1 (stereo unspecified),EC50,[7],6.68 µM (active)
